From PubChem BioAssay (NCI)
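These data come from cells grown in 96-well plates and exposed to compound for 48 hours at five concentrations. GI50 is the concentration that inhibits growth by half. TGI denotes the concentration required for complete inhibition of growth.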

How the values were obtained:
Assay in all cases: NCI tumour cell line growth inhibition, 48 h
NCI-H226 lung = tested on: NCI-H226 lung
A498 renal = tested on: A498 renal
SK-MEL-28 melanoma = tested on: SK-MEL-28 melanoma
NCI/ADR-RES ovarian = tested on: NCI/ADR-RES ovarian
BT-549 breast = tested on: BT-549 breast
SK-MEL-2 melanoma = tested on: SK-MEL-2 melanoma
NCI-H522 lung = tested on: NCI-H522 lung
SK-MEL-5 melanoma = tested on: SK-MEL-5 melanoma
SNB-75 CNS = tested on: SNB-75 CNS
HCC-2998 colon = tested on: HCC-2998 colon
HL-60(TB) leukemia = tested on: HL-60(TB) leukemia
HOP-62 NSCLC = tested on: HOP-62 NSCLC
ACHN renal = tested on: ACHN renal
SF-268 CNS = tested on: SF-268 CNS
OVCAR-5 ovarian = tested on: OVCAR-5 ovarian
HOP-92 NSCLC = tested on: HOP-92 NSCLC
SN12C renal = tested on: SN12C renal
MDA-MB-231 breast = tested on: MDA-MB-231 breast
MALME-3M melanoma = tested on: MALME-3M melanoma
UACC-62 melanoma = tested on: UACC-62 melanoma
IGROV1 ovarian = tested on: IGROV1 ovarian
SF-295 CNS = tested on: SF-295 CNS
HCT-15 colon = tested on: HCT-15 colon
HCT-116 colon = tested on: HCT-116 colon
MDA-MB-435 = tested on: MDA-MB-435
MCF7 breast = tested on: MCF7 breast
RXF 393 renal = tested on: RXF 393 renal
SR leukemia = tested on: SR leukemia

[Cl][Ru].c1ccc(-c2cccc(-c3ccccn3)n2)nc1.c1ccc(-c2ccnc3c2ccc2c(-c4ccccc4)ccnc23)cc1
GI50 (NCI-H226 lung): 4.66 µM | TGI (NCI-H226 lung): 25.7 µM | GI50 (A498 renal): 15.1 µM | TGI (A498 renal): 46.6 µM | GI50 (SK-MEL-28 melanoma): 3.01 µM | TGI (SK-MEL-28 melanoma): 18 µM | GI50 (NCI/ADR-RES ovarian): 10 µM | TGI (NCI/ADR-RES ovarian): > 100 µM | GI50 (BT-549 breast): 2.26 µM | TGI (BT-549 breast): 6.46 µM | GI50 (SK-MEL-2 melanoma): 1.96 µM | TGI (SK-MEL-2 melanoma): 5.13 µM | GI50 (NCI-H522 lung): 2.12 µM | TGI (NCI-H522 lung): 6.75 µM | GI50 (SK-MEL-5 melanoma): 6.55 µM | TGI (SK-MEL-5 melanoma): 44.4 µM | GI50 (SNB-75 CNS): 2.37 µM | TGI (SNB-75 CNS): 9.73 µM | TGI (HCC-2998 colon): 20.1 µM | GI50 (HL-60(TB) leukemia): 1.62 µM | TGI (HL-60(TB) leukemia): 4.03 µM | GI50 (HOP-62 NSCLC): 4.11 µM | TGI (HOP-62 NSCLC): 27.9 µM | GI50 (ACHN renal): 21.2 µM | TGI (ACHN renal): > 100 µM | GI50 (SF-268 CNS): 4.17 µM | TGI (SF-268 CNS): > 100 µM | GI50 (OVCAR-5 ovarian): 4.01 µM | TGI (OVCAR-5 ovarian): 19.5 µM | GI50 (HOP-92 NSCLC): 1.09 µM | TGI (HOP-92 NSCLC): 3.64 µM | GI50 (SN12C renal): 2.87 µM | TGI (SN12C renal): 10.8 µM | GI50 (MDA-MB-231 breast): 3 µM | TGI (MDA-MB-231 breast): 12.5 µM | GI50 (MALME-3M melanoma): 2.42 µM | TGI (MALME-3M melanoma): 7.52 µM | GI50 (UACC-62 melanoma): 1.97 µM | TGI (UACC-62 melanoma): 5.53 µM | GI50 (IGROV1 ovarian): 2.93 µM | TGI (IGROV1 ovarian): 20.7 µM | GI50 (SF-295 CNS): 13.8 µM | TGI (SF-295 CNS): 56.7 µM | GI50 (HCT-15 colon): 22.4 µM | TGI (HCT-15 colon): > 100 µM | GI50 (HCT-116 colon): 3.16 µM | TGI (HCT-116 colon): > 100 µM | GI50 (MDA-MB-435): 2.77 µM | TGI (MDA-MB-435): 11 µM | GI50 (MCF7 breast): 2.41 µM | TGI (MCF7 breast): 13.4 µM | GI50 (RXF 393 renal): 3.43 µM | TGI (RXF 393 renal): 19 µM | GI50 (SR leukemia): 2.65 µM | TGI (SR leukemia): 17.9 µM
